# From article PMC6704710, “Preclinical evaluation of 3D185, a novel potent inhibitor of FGFR1/2/3 and CSF-1R, in FGFR-dependent and macrophage-dominant cancer models” (Journal of Experimental & Clinical Cancer Research : CR, 2019)
# Experiments:
# Format in all cases: biochemical
# PDHK4(h) = biological target: T1, PDHK4(h) (Homo sapiens, UniProt Q16654); test: Eurofins kinase panel; conditions: read-out: Inhibition rate (%)
# T1 construct: purchased Eurofins (KinaseProfiler)
# MSK1(h) = biological target: T2, MSK1(h) (Homo sapiens, UniProt O75582); test: Eurofins kinase panel; conditions: read-out: Inhibition rate (%)
# T2 construct: purchased Eurofins (KinaseProfiler)
# STK32B(h) = biological target: T3, STK32B(h) (Homo sapiens, UniProt Q9NY57); test: Eurofins kinase panel; conditions: read-out: Inhibition rate (%)
# T3 construct: purchased Eurofins (KinaseProfiler)
# GRK2(h) = biological target: T4, GRK2(h) (Homo sapiens, UniProt P25098); test: Eurofins kinase panel; conditions: read-out: Inhibition rate (%)
# T4 construct: purchased Eurofins (KinaseProfiler)
# T4 sequence (P25098 1-689): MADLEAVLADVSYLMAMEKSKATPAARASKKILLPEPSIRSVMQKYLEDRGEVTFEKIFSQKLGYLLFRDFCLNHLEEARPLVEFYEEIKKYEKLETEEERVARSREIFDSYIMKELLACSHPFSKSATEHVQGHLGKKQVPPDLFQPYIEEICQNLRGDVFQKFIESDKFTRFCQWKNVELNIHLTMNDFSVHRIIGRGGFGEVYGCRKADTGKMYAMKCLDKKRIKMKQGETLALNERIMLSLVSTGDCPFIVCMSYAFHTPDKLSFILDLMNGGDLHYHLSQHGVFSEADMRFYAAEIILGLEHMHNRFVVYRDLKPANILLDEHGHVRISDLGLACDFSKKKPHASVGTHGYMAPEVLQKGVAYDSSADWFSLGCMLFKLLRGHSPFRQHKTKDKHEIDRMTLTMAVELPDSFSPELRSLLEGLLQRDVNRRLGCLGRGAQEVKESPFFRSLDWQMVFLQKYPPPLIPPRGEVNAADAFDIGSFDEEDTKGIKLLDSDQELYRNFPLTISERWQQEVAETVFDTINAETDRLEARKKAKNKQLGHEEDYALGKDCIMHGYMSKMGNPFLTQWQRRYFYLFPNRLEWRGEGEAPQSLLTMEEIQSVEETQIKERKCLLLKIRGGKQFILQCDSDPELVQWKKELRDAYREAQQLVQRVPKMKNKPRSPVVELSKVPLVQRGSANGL
# ICK(h) = biological target: T5, ICK(h) (Homo sapiens, UniProt Q9UPZ9); test: Eurofins kinase panel; conditions: read-out: Inhibition rate (%)
# T5 construct: purchased Eurofins (KinaseProfiler)
# T5 sequence (Q9UPZ9 1-632): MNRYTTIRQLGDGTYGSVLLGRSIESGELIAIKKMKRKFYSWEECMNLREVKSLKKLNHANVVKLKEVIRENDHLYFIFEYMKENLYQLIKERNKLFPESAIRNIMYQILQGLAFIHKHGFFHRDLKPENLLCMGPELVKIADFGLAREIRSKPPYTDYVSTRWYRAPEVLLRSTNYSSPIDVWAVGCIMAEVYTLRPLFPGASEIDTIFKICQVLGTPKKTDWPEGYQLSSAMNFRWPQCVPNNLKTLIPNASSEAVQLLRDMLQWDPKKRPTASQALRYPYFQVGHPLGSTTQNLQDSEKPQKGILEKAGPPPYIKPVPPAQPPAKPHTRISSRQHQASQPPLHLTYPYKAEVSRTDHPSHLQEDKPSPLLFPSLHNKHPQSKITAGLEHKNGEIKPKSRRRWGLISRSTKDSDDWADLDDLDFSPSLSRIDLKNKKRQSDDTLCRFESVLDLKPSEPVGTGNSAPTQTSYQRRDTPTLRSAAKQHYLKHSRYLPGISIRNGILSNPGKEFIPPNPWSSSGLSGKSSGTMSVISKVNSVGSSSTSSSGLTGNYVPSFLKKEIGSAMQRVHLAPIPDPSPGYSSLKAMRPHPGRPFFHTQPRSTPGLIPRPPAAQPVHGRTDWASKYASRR
# CLK2(h) = biological target: T6, CLK2(h) (Homo sapiens, UniProt P49760); test: Eurofins kinase panel; conditions: read-out: Inhibition rate (%)
# T6 construct: purchased Eurofins (KinaseProfiler)
# [1] = system: 372 human recombinant kinases; test: Eurofins kinase panel, overall selectivity
# Protocol: Active FGFR1–4, VEGFR1, KDR, VEGFR3, PDGFRα and PDGFRβ proteins were purchased from Eurofins (Fremont, United States), and kinase activity was assessed using ELISA, as previously reported. The broader kinase selectivity profile of 3D185 (0.01, 0.1, and 1 μM) was determined by Eurofins by screening the compound against 372 human recombinant kinases. Increasing concentrations of ATP were diluted for the kinase reaction in the ATP competition assay. CSF-1R kinase activity was analyzed using the Z’-LYTE™ Kinase Assay Kit (Thermo Fisher, United States). The assay formats are described in the SelectScreen Kinase Profiling Service Zlyte protocol. IC50 values were calculated by dose-response curve fitting using Prism (Graph Pad).
# CaMKI(h) = biological target: T7, CaMKI(h) (Homo sapiens, UniProt Q14012); test: Eurofins kinase panel; conditions: read-out: Inhibition rate (%)
# T7 construct: purchased Eurofins (KinaseProfiler)
# cKit(V654A)(h) = biological target: T8, cKit(V654A)(h) (Homo sapiens, UniProt P10721, V654A); test: Eurofins kinase panel; conditions: read-out: Inhibition rate (%)
# T8 construct: purchased Eurofins (KinaseProfiler)
# DRAK1(h) = biological target: T9, DRAK1(h) (Homo sapiens, UniProt Q9UEE5); test: Eurofins kinase panel; conditions: read-out: Inhibition rate (%)
# T9 construct: purchased Eurofins (KinaseProfiler)
# T9 sequence (Q9UEE5 1-414): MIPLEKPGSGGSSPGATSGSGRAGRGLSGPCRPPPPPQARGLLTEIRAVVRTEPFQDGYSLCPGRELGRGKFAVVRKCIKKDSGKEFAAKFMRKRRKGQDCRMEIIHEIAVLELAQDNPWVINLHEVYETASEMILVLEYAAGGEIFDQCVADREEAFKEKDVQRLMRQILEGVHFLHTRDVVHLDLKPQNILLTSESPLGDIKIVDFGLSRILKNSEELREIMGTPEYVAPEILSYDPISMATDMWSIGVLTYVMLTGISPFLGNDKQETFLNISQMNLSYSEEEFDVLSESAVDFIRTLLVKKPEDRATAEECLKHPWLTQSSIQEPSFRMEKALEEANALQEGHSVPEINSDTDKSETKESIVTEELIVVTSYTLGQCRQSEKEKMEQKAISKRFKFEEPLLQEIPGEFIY
# Tie2 (h) = biological target: T10, Tie2 (h) (Homo sapiens, UniProt Q02763); test: Eurofins kinase panel; conditions: read-out: Inhibition rate (%)
# T10 construct: purchased Eurofins (KinaseProfiler)
# T10 sequence (Q02763 23-1124): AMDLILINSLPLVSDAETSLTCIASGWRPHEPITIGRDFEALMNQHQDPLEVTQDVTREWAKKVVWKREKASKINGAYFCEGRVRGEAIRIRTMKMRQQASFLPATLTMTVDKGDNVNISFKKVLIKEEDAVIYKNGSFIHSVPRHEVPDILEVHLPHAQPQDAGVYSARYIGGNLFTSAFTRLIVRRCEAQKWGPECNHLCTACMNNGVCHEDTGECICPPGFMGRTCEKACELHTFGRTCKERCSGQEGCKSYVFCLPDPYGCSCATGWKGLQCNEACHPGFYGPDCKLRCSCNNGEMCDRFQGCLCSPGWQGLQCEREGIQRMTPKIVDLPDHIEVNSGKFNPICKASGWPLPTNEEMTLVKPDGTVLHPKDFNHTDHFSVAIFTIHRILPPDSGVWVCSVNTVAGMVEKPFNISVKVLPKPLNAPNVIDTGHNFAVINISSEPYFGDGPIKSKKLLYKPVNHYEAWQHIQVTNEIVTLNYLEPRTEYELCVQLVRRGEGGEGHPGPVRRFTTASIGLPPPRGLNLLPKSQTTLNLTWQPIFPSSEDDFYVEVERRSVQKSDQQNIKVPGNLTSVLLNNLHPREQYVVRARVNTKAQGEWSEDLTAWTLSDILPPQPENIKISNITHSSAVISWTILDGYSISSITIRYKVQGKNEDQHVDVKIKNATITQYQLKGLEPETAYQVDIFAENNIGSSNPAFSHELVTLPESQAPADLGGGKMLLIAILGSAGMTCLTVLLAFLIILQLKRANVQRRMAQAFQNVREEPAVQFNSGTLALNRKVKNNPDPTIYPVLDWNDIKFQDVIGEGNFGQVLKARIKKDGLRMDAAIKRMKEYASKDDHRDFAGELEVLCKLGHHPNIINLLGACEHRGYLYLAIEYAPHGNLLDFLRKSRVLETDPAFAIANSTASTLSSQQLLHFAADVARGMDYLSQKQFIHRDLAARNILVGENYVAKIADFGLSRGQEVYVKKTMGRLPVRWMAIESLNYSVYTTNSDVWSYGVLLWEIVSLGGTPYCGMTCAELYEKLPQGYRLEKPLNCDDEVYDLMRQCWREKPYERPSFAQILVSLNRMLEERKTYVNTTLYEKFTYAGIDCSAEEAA
# T6 sequence (P49760 whole entry): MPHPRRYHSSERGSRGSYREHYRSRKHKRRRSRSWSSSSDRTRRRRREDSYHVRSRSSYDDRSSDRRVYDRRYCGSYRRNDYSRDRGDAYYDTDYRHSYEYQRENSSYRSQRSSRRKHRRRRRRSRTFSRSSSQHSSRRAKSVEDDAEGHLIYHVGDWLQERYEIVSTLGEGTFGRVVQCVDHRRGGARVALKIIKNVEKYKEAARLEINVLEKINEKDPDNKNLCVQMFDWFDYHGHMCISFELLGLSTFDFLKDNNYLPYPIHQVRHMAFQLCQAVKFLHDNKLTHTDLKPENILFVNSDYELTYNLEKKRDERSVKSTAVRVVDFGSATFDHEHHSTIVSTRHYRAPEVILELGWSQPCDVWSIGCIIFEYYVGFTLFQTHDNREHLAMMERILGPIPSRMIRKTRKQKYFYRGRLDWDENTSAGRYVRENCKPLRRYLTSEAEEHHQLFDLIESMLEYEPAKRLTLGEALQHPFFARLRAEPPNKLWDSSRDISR
# T1 sequence (Q16654 whole entry): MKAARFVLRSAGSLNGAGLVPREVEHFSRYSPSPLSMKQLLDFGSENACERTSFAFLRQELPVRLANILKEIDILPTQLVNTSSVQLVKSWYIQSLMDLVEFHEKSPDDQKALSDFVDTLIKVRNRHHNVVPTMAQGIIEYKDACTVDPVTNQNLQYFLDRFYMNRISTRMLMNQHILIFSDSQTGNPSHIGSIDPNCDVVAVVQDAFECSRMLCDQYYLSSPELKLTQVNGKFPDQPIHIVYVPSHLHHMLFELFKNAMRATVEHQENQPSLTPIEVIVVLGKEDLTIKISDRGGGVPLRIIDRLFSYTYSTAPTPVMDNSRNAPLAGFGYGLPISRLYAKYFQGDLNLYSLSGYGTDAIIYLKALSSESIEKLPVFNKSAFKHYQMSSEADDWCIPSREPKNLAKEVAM
# T7 sequence (Q14012 whole entry): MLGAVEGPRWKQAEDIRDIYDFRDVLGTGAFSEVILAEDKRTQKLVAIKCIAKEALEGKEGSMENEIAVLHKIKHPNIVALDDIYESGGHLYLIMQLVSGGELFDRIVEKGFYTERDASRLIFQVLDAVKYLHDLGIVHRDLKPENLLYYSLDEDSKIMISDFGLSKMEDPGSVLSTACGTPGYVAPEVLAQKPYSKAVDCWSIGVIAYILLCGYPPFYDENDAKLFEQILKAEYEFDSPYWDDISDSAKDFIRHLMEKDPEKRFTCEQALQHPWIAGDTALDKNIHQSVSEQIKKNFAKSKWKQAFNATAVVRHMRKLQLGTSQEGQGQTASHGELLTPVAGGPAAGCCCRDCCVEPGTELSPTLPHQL
# T2 sequence (O75582 whole entry): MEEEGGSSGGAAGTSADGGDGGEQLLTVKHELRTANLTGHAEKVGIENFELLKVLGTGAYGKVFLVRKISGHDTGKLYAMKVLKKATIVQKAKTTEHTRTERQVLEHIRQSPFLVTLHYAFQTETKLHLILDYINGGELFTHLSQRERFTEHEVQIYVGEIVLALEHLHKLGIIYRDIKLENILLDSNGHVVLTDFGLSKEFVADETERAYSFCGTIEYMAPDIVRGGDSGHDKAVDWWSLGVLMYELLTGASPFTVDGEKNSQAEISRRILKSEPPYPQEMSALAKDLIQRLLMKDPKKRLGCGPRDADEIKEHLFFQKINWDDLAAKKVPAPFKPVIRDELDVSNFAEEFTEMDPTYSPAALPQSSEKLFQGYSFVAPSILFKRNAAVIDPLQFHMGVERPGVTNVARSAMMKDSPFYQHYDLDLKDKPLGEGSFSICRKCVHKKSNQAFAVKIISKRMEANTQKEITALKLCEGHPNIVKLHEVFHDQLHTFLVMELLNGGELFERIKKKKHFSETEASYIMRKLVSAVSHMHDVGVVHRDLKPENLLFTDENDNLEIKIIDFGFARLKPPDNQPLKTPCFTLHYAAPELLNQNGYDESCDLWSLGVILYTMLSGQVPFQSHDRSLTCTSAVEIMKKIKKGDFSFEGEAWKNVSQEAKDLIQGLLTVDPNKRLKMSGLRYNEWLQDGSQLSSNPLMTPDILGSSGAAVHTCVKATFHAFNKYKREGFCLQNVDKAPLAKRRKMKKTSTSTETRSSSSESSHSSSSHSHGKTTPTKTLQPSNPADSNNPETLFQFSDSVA
# T8 sequence (P10721 26-976 V654A): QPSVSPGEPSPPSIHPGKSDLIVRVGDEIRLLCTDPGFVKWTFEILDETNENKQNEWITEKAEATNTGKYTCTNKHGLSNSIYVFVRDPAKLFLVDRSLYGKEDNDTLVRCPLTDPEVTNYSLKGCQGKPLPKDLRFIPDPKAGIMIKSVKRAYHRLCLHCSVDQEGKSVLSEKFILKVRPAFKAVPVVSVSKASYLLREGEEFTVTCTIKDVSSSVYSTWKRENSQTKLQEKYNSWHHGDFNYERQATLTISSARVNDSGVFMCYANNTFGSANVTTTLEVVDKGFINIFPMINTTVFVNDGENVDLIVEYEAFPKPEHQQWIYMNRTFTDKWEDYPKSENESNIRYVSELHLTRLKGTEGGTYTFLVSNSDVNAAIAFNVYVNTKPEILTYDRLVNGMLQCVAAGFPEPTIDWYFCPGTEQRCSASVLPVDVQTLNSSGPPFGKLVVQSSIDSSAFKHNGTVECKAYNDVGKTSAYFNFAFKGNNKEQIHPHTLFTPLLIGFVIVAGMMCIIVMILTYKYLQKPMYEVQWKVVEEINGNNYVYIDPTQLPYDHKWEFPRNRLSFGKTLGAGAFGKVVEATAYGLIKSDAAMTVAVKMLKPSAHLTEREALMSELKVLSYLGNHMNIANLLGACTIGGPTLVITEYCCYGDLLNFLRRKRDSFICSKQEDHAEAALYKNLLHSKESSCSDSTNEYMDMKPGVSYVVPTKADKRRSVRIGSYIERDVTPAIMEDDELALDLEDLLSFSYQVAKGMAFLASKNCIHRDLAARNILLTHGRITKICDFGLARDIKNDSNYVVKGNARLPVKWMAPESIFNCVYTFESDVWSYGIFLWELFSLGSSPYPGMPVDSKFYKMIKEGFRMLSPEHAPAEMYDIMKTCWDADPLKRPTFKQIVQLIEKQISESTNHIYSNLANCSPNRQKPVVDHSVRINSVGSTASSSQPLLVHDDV
# T3 sequence (Q9NY57 whole entry): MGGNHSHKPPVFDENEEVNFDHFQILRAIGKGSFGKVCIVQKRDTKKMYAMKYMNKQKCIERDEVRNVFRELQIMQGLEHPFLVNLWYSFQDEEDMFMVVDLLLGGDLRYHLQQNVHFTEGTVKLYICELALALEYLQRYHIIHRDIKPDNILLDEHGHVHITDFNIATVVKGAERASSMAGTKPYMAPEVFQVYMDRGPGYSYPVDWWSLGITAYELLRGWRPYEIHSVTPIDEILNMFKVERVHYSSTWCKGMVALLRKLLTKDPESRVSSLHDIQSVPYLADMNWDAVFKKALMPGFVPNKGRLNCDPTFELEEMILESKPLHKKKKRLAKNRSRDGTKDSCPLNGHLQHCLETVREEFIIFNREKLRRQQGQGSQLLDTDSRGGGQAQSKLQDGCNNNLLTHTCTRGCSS
smiles,measurement,setting,value
COc1cc(OC)c(Cl)c(-c2ccc3c(NC(=O)c4ccc(N5CCNC(C)(C)C5)cc4)n[nH]c3n2)c1Cl [3D185],inhibition at 0.01 µM,PDHK4(h); 10 nM,-2%
same,inhibition at 0.1 µM,PDHK4(h); 100 nM,-2%
same,inhibition at 1 µM,PDHK4(h); 1000 nM,0%
same,inhibition at 0.01 µM,MSK1(h); 10 nM,31%
same,inhibition at 0.1 µM,MSK1(h); 100 nM,19%
same,inhibition at 1 µM,MSK1(h); 1000 nM,24%
same,inhibition at 0.01 µM,STK32B(h); 10 nM,1%
same,inhibition at 0.1 µM,STK32B(h); 100 nM,1%
same,inhibition at 1 µM,STK32B(h); 1000 nM,0%
same,inhibition at 0.01 µM,GRK2(h); 10 nM,5%
same,inhibition at 0.1 µM,GRK2(h); 100 nM,1%
same,inhibition at 1 µM,GRK2(h); 1000 nM,-4%
same,inhibition at 0.01 µM,ICK(h); 10 nM,-10%
same,inhibition at 0.1 µM,ICK(h); 100 nM,-5%
same,inhibition at 1 µM,ICK(h); 1000 nM,4%
same,inhibition at 0.01 µM,CLK2(h); 10 nM,5%
same,inhibition at 0.1 µM,CLK2(h); 100 nM,3%
same,inhibition at 1 µM,CLK2(h); 1000 nM,7%
same,selectivity for FGFR1 over other kinases,[1]; 17 kinases,> 20 fold
same,selectivity for FGFR1 over other kinases,[1]; 349 kinases,greater than 200 fold
same,inhibition at 0.01 µM,CaMKI(h); 10 nM,11%
same,inhibition at 0.1 µM,CaMKI(h); 100 nM,14%
same,inhibition at 1 µM,CaMKI(h); 1000 nM,64%
same,inhibition at 0.01 µM,cKit(V654A)(h); 10 nM,4%
same,inhibition at 0.1 µM,cKit(V654A)(h); 100 nM,14%
same,inhibition at 1 µM,cKit(V654A)(h); 1000 nM,37%
same,inhibition at 0.01 µM,DRAK1(h); 10 nM,-4%
same,inhibition at 0.1 µM,DRAK1(h); 100 nM,7%
same,inhibition at 1 µM,DRAK1(h); 1000 nM,14%
same,inhibition at 0.01 µM,Tie2 (h); 10 nM,19%
same,inhibition at 0.1 µM,Tie2 (h); 100 nM,64%
same,inhibition at 1 µM,Tie2 (h); 1000 nM,95%
